{
  "source": "PubChem BioAssay AID1549",
  "about": "(Sanford-Burnham Center for Chemical Genomics, 2009)",
  "note": "Active and inactive are the calls of the source. How the calls were made is not given here.",
  "data": [
    {"target": "Influenza A virus M2 proton channel (A/TW/4845/1999 H1N1)", "test": "NMR binding screen, influenza A virus M2 proton channel, Kd (AID 1549)", "settings": "M2 protein", "values": [
      {"smiles": "Cc1ccc(C)n1NC(=O)c1cccs1", "Kd": "> 4 mM (inactive)"},
      {"smiles": "O=c1nc(C(F)(F)F)nc2ccccn12", "Kd": "> 4 mM (inactive)"},
      {"smiles": "c1ccc2[nH]c(CCn3cncn3)nc2c1", "Kd": "> 4 mM (inactive)"},
      {"smiles": "O=S(=O)(Cc1ccccc1Cl)Nc1ccccn1", "Kd": "> 4 mM (inactive)"},
      {"smiles": "Cc1c(C(=O)NC2=NCCS2)oc2ccccc12", "Kd": "> 4 mM (inactive)"},
      {"smiles": "NC(=O)c1ccc(-c2csnn2)cc1", "Kd": "> 4 mM (inactive)"},
      {"smiles": "COc1ccc2nc(N)sc2c1", "Kd": "> 4 mM (inactive)"},
      {"smiles": "Cc1cccc(NS(=O)(=O)c2cccs2)n1", "Kd": "> 4 mM (inactive)"},
      {"smiles": "COC(=O)c1cn(C(=O)OC)c2ccccc12", "Kd": "> 4 mM (inactive)"},
      {"smiles": "Cc1ccc(S(C)(=O)=O)s1", "Kd": "> 4 mM (inactive)"},
      {"smiles": "Cc1cc(C)c(C#N)c(N2CCCC2)n1", "Kd": "> 4 mM (inactive)"},
      {"smiles": "CC(=O)Oc1ccc2c(c1)c(C(C)=O)c(C)n2C", "Kd": "> 4 mM (inactive)"},
      {"smiles": "O=C(Nc1ccon1)c1csc2c1CCCC2", "Kd": "> 4 mM (inactive)"},
      {"smiles": "COc1cc(/C=C/C(=O)O)cc(OC)c1OC", "Kd": "> 4 mM (inactive)"},
      {"smiles": "S=c1[nH]ncn1-c1ccccc1", "Kd": "> 4 mM (inactive)"},
      {"smiles": "CCCCCCCCCCCC1=C(O)C(=O)C=C(O)C1=O", "Kd": "> 4 mM (inactive)"},
      {"smiles": "O=C(O)CCCCCCCC(=O)O", "Kd": "> 4 mM (inactive)"},
      {"smiles": "CN1C(=O)C(Cc2c[nH]c3ccccc23)C(=O)N(C)C1=O", "Kd": "> 4 mM (inactive)"},
      {"smiles": "O=C1C(=O)N(CNc2ncccn2)c2ccccc21", "Kd": "> 4 mM (inactive)"},
      {"smiles": "CCC[C@@H]1CCCCN1", "Kd": "> 4 mM (inactive)"},
      {"smiles": "NC(=O)c1ccsc1NC(=O)c1cccnc1", "Kd": "> 4 mM (inactive)"},
      {"smiles": "c1cc2c(cc1[C@H]1OC[C@H]3[C@@H]1CO[C@H]3c1ccc3c(c1)OCO3)OCO2", "Kd": "> 4 mM (inactive)"},
      {"smiles": "C[C@@H]1O[C@@H](O[C@H]2[C@H](Oc3cc(O)c4c(=O)cc(-c5ccc(O)cc5)oc4c3)O[C@H](CO)[C@@H](O)[C@@H]2O)[C@H](O)[C@H](O)[C@H]1O", "Kd": "> 4 mM (inactive)"},
      {"smiles": "Cc1ccc(S(=O)(=O)CCc2ccccn2)cc1", "Kd": "> 4 mM (inactive)"},
      {"smiles": "COc1ccc2c(c1)O[C@@H]1COc3cc(OC)c(OC)cc3[C@@H]1C2=O", "Kd": "> 4 mM (inactive)"},
      {"smiles": "O=[N+]([O-])c1cccc2c1nnn2C(CO)OCCO", "note": "(configuration not stated)", "Kd": "> 4 mM (inactive)"},
      {"smiles": "O=C1CCCc2c1nc(-c1ccccc1)n2O", "Kd": "> 4 mM (inactive)"},
      {"smiles": "CC12CN([N+](=O)[O-])C3(C(N)=O)CC1CCC23C", "note": "(configuration not stated)", "Kd": "> 4 mM (inactive)"},
      {"smiles": "COc1cc(N)ncn1", "Kd": "> 4 mM (inactive)"},
      {"smiles": "NC(=O)C1CCN(c2ccc(Cl)nn2)CC1", "Kd": "> 4 mM (inactive)"},
      {"smiles": "Cc1nc2ccc(F)cc2cc1C(=O)NCc1ccco1", "Kd": "> 4 mM (inactive)"},
      {"smiles": "CC(C)=CCCC1(C)C=Cc2c(O)c3c(c(CC=C(C)C)c2O1)OC12C(=CCCC1C(C)(C)O[C@@]2(C/C=C(\\C)C(=O)O)C(=O)O)C3=O", "note": "(some centres not stated)", "Kd": "> 4 mM (inactive)"},
      {"smiles": "NC(=O)CSc1nc2ccccc2c(=O)[nH]1", "Kd": "> 4 mM (inactive)"},
      {"smiles": "CC(C)c1ccc2c(c1O)CC[C@H]1C3=C(CC[C@]21C)C(=O)OC3", "Kd": "> 4 mM (inactive)"},
      {"smiles": "O=C(NCc1ccc2c(c1)OCO2)c1cccs1", "Kd": "> 4 mM (inactive)"},
      {"smiles": "O=C(Nc1ccon1)c1sc2cc(F)ccc2c1Cl", "Kd": "> 4 mM (inactive)"},
      {"smiles": "COc1ccc(-c2oc3ccccc3c(=O)c2O)cc1OC", "Kd": "> 4 mM (inactive)"},
      {"smiles": "O=c1[nH]c(N2CCOCC2)nc2ccccc12", "Kd": "> 4 mM (inactive)"},
      {"smiles": "OCC1COc2ccccc2C1", "note": "(configuration not stated)", "Kd": "> 4 mM (inactive)"},
      {"smiles": "CSc1nc(C)cc(Oc2ccc(=O)n(C)n2)n1", "Kd": "> 4 mM (inactive)"},
      {"smiles": "O=C(c1ccco1)N1CCn2c1nc1ccccc12", "Kd": "> 4 mM (inactive)"},
      {"smiles": "COc1cc2nc(-c3cccs3)oc(=O)c2cc1OC", "Kd": "> 4 mM (inactive)"},
      {"smiles": "Oc1ccccc1C(=S)N1CCCCCC1", "Kd": "> 4 mM (inactive)"},
      {"smiles": "NC(=O)C1CC2C=CC1C2", "note": "(configuration not stated)", "Kd": "> 4 mM (inactive)"},
      {"smiles": "O=c1c(O)cccc2cc(O)c(O)c(O)c12", "Kd": "> 4 mM (inactive)"},
      {"smiles": "Nc1scc[n+]1CC(=O)[O-]", "Kd": "> 4 mM (inactive)"},
      {"smiles": "COCc1cc(C)nc2sc(C(=O)OC)c(N)c12", "Kd": "> 4 mM (inactive)"}
    ]}
  ]
}
